Test results from patent publication US11046700B2, “Substituted imidazo[1,2-a]pyrazines, pyrazolo[1,5-c]pyrimidines, pyrazolo[1,5-a]pyridines, and purines for the treatment of schistosomiasis” (Merck Patent GmbH, priority 2017, dated 2021).
Read-outs that look alike come from different tables or passages of the source.

How the values were obtained:
Type in all cases: cell-based
[1] = system: HepG2 cell line; experiment: Cytotoxicity against human HepG2 cell lines
[2] = system: S. mansoni adult worms; experiment: In vitro assay, S. mansoni adult worms; details: Schistosoma mansoni, read-out: (a) Adult
Experimental: (§1) The routine biological assays using adult or juvenile worms and cytotoxicity assays using MRC-5 cells have been disclosed previously in Mansour, N. R., et al. (2016). “High Throughput Screening Identifies Novel Lead Compounds with Activity against Larval, Juvenile and Schistosoma mansoni PLoS Negl Trap Dis 10(4): e0004659. Cytotoxicity assays using the HepG2 cell line were carried out as described in Molecular Diversity (2015) 19, 251-261.
(a) S. mansoni adult worms

[3] = system: S. mansoni juvenile worms; experiment: In vitro assay, S. mansoni juvenile worms; details: Schistosoma mansoni, read-out: (b) Juvenile
Experimental: as §1
(b) S. mansoni juvenile worms

[4] = S. mansoni juvenile worms, in vitro
[5] = S. mansoni adult worms, in vitro

SMILES | IC50 [3, 4] [nM] | IC50 [2, 5] [nM] | (e) Cytotox HepG2 [1] [µM] | IC50 [2] [nM] | IC50 [3] [nM]
CC(C)c1nc2cnc(-c3cccc(C(F)(F)F)c3)cn2c1-c1ccc(OP(=O)(O)O)cc1F [Example 3, 3-fluoro-4-[2-(propan-2-yl)-6-[3-(trifluoromethyl)phenyl]imidazo[1,2-a]pyrazin-3-yl]phenoxyphosphonic acid] | – | – | 9.2 | < 49 | 130
CC(C)c1nn2cnc(-c3cccc(C(F)(F)F)c3)cc2c1-c1c(F)cc(O)cc1F [Example 24, 3,5-difluoro-4-(2-isopropyl-5-(3-(trifluoromethyl)phenyl)pyrazolo[1,5-c]pyrimidin-3-yl)phenol] | < 12 | 22 | 8.4 | – | –
COc1ccc(-c2c(C(C)C)nc3cnc(-c4cccc(C(F)(F)F)c4)cn23)cc1OP(=O)(O)O [Example 28, 2-methoxy-5-[2-(propan-2-yl)-6-[3-(trifluoromethyl)phenyl]imidazo[1,2-a]pyrazin-3-yl]phenoxyphosphonic acid] | – | – | 19.2 | – | 183
Cc1nc2cnc(-c3ccc(F)c(C(F)(F)F)c3)cn2c1-c1c(F)cc(OP(=O)(O)O)cc1F [Example 41, 3,5-difluoro-4-{6-[4-fluoro-3-(trifluoromethyl)phenyl]-2-methyl-imidazo[1,2-a]pyrazin-3-yl}phenoxyphosphonic acid] | – | – | 6.8 | – | 100
Fc1c(-c2c(C3CC3)nc3cnc(-c4cccc(S(F)(F)(F)(F)F)c4)cn23)ccc2[nH]ncc12 [Example 46, 2-cyclopropyl-3-(4-fluoro-1H-indazol-5-yl)-6-(3-(pentafluoro-λ6-sulfaneyl)phenyl)imidazo[1,2-a]pyrazine] | 36 | – | 20.7 | – | –
Fc1ccc(-c2cn3c(-c4ccc5[nH]ncc5c4F)c(C4CC4)nc3cn2)cc1C(F)(F)C(F)(F)F [Example 54, 5-{2-cyclopropyl-6-[4-fluoro-3-(1,1,2,2,2-pentafluoroethyl)phenyl]imidazo[1,2-a]pyrazin-3-yl}-4-fluoro-1H-indazole] | 37 | 23 | – | – | –
Fc1ccc(-c2cc3c(-c4ccc5[nH]ncc5c4F)c(C4CC4)nn3cn2)cc1C(F)(F)C(F)(F)F [Example 59, 2-Cyclopropyl-3-(4-fluoro-1H-indazol-5-yl)-5-(4-fluoro-3-pentafluoroethyl-phenyl)-pyrazolo[1,5-c]pyrimidine] | 36 | 66 | – | – | –
Oc1cc(F)c(-c2c(C3CC3)nn3cnc(-c4ccc(F)c(C(F)(F)F)c4)cc23)c(F)c1 [Example 60, 4-[2-Cyclopropyl-5-(4-fluoro-3-trifluoromethyl-phenyl)-pyrazolo[1,5-c]pyrimidin-3-yl]-3,5-difluoro-phenol] | 21 | 17 | – | – | –
O=P(O)(O)Oc1cc(F)c(-c2c(C3CC3)nc3cnc(-c4ccc(F)c(C(F)(F)F)c4)cn23)c(F)c1 [Example 62, Phosphoric acid mono-{4-[2-cyclopropyl-6-(4-fluoro-3-trifluoromethyl-phenyl)-imidazo[1,2-a]pyrazin-3-yl]-3,5-difluoro-phenyl}ester] | – | – | 14.8 | – | 3.7
Cc1nc2cnc(-c3ccc(F)c(S(F)(F)(F)(F)F)c3)cn2c1-c1ccc2[nH]ncc2c1F [Example 64, 3-(4-Fluoro-1H-indazol-5-yl)-6-(4-fluoro-3-pentafluorosulfanyl-phenyl)-2-methyl-imidazo[1,2-a]pyrazine] | 77 | 26 | – | – | –
Fc1c(-c2c(C(F)(F)F)nc3cnc(-c4cccc(C(F)(F)F)c4)cn23)ccc2[nH]ncc12 [Example 70, 3-(4-Fluoro-1H-indazol-5-yl)-2-trifluoromethyl-6-(3-trifluoromethyl-phenyl)-imidazo[1,2-a]pyrazine] | 41 | 25 | – | – | –
C#CCOc1cc(-c2cn3c(-c4ccc5[nH]ncc5c4F)c(C(F)(F)F)nc3cn2)ccc1F [Example 78, 3-(4-Fluoro-1H-indazol-5-yl)-6-(4-fluoro-3-prop-2-ynyloxy-phenyl)-2-trifluoromethyl-imidazo[1,2-a]pyrazine] | 21 | 10 | – | – | –

The next lines start with results.

IC50 [3, 4] [nM] | IC50 [2, 5] [nM] | SMILES | (e) Cytotox HepG2 [1] [µM] | IC50 [2] [nM] | IC50 [3] [nM]
170 | – | Cc1nc2cnc(-c3cccc(C(F)(F)F)c3)cn2c1-c1c(F)cc(O)cc1F [Example 15, 3,5-difluoro-4-[2-methyl-6-[3-(trifluoromethyl)phenyl]imidazo[1,2-a]pyrazin-3-yl]phenol] | 8.4 | – | –
90 | 42 | CC(C)c1nc2cnc(-c3cccc(C(F)(F)F)c3)cn2c1-c1c(F)cc(O)cc1F [Example 19, 3,5-difluoro-4-[2-(propan-2-yl)-6-[3-(trifluoromethyl)phenyl]imidazo[1,2-a]pyrazin-3-yl]phenol] | 7.5 | – | –
1040 | 920 | COc1cc(O)ccc1-c1c(C(C)C)nc2cnc(-c3cccc(C(F)(F)F)c3)cn12 [Example 20, 4-(2-isopropyl-6-(3-(trifluoromethyl)phenyl)imidazo[1,2-a]pyrazin-3-yl)-3-methoxyphenol] | – | – | –
51 | 37 | CC(C)c1nc2cnc(-c3cccc(C(F)(F)F)c3)cn2c1-c1ccc2[nH]ncc2c1F [Example 21, 4-fluoro-5-{2-propan-2-yl-6-[3-trifluoromethylphenyl]imidazo[1,2-a]pyrazin-3-yl}-1H-indazole] | 15.1 | – | –
149 | < 49 | COc1ccc(-c2c(C(C)C)nc3cnc(-c4ccc(F)c(C(F)(F)F)c4)cn23)cc1O [Example 27, 2-methoxy-5-[2-(propan-2-yl)-6-[4-fluoro-3-(trifluoromethyl)phenyl]imidazo[1,2-a]pyrazin-3-yl]phenol] | – | – | –
< 12 | 21 | COc1ccc(-c2c(C(F)(F)F)nc3cnc(-c4cccc(C(F)(F)C(F)(F)F)c4)cn23)cc1O [Example 30, 2-methoxy-5-[2-(trifluoromethyl)-6-[3-(pentafluoroethyl)phenyl]imidazo[1,2-a]pyrazin-3-yl]phenol] | 11.1 | – | –
80 | 56 | CC1(c2nc3cnc(-c4ccc(F)c(C(F)(F)F)c4)cn3c2-c2c(F)cc(O)cc2F)CC1 [Example 33, 3,5-difluoro-4-[2-(1-methyl-cycloprop-1-yl)-6-[4-fluoro-3-(trifluoromethyl)phenyl]imidazo[1,2-a]pyrazin-3-yl]phenol] | 7.9 | – | –
73 | 59 | Oc1cc(F)c(-c2c(C3CCC3)nc3cnc(-c4ccc(F)c(C(F)(F)F)c4)cn23)c(F)c1 [Example 35, 4-(2-cyclobutyl-6-(4-fluoro-3-(trifluoromethyl)phenyl)imidazo[1,2-a]pyrazin-3-yl)-3,5-difluorophenol] | 5.7 | – | –
51 | 53 | CCc1nc2cnc(-c3ccc(F)c(C(F)(F)F)c3)cn2c1-c1c(F)cc(O)cc1F [Example 36, 3,5-difluoro-4-[2-ethyl-6-[4-fluoro-3-(trifluoromethyl)phenyl]imidazo[1,2-a]pyrazin-3-yl]phenol] | 8.3 | – | –
110 | – | CCc1nc2cnc(-c3ccc(F)c(C(F)(F)F)c3)cn2c1-c1ccc2[nH]ncc2c1F [Example 37, 4-fluoro-5-{2-ethyl-6-[4-fluoro-3-(trifluoromethyl)phenyl]imidazo[1,2-a]pyrazin-3-yl}-1H-indazole] | 13.1 | – | –
< 12 | 24 | CC(C)c1nc2cnc(-c3cccc(S(F)(F)(F)(F)F)c3)cn2c1-c1c(F)cc(O)cc1F [Example 39, 3,5-difluoro-4-[2-(propan-2-yl)-6-[3-(pentafluorosulfanyl)phenyl]imidazo[1,2-a]pyrazin-3-yl]phenol] | 6.6 | – | –
60 | 37 | CC(C)c1nn2cnc(-c3ccc(F)c(C(F)(F)F)c3)cc2c1-c1ccc2[nH]ncc2c1F [Example 61, 3-(4-Fluoro-1H-indazol-5-yl)-5-(4-fluoro-3-trifluoromethyl-phenyl)-2-isopropylpyrazolo[1,5-c]pyrimidine] | – | – | –
10 | 11 | CC(C)c1nc2cnc(-c3ccc(F)c(S(F)(F)(F)(F)F)c3)cn2c1-c1ccc2[nH]ncc2c1F [Example 68, 3-(4-Fluoro-1H-indazol-5-yl)-6-(4-fluoro-3-pentafluorosulfanyl-phenyl)-2-isopropyl-imidazo[1,2-a]pyrazine] | – | – | –
27 | 36 | CC(C)c1nc2cnc(-c3cccc(Br)c3)cn2c1-c1ccc2[nH]ncc2c1F [Example 73, 6-(3-Bromo-phenyl)-3-(4-fluoro-1H-indazol-5-yl)-2-isopropyl-imidazo[1,2-a]pyrazine] | – | – | –
36 | 37 | Fc1ccc(-c2cn3c(-c4ccc5[nH]ncc5c4F)c(C4CCC4)nc3cn2)cc1C(F)(F)F [Example 76, 2-Cyclobutyl-3-(4-fluoro-1H-indazol-5-yl)-6-(4-fluoro-3-trifluoromethyl-phenyl)-imidazo[1,2-a]pyrazine] | – | – | –
5 | 4 | CC(C)c1cc(-c2cn3c(-c4c(F)cc(O)cc4F)c(C4CC4)nc3cn2)ccc1F [Example 80, 4-[2-Cyclopropyl-6-(4-fluoro-3-isopropyl-phenyl)-imidazo[1,2-a]pyrazin-3-yl]-3,5-difluoro-phenol] | – | – | –
7 | 48 | Fc1ccc(-c2cn3c(-c4ccc5[nH]ncc5c4F)c(C(F)(F)F)nc3cn2)cc1Br [Example 85, 6-(3-Bromo-4-fluoro-phenyl)-3-(4-fluoro-1H-indazol-5-yl)-2-trifluoromethyl-imidazo[1,2-a]pyrazine] | – | – | –
